4 compounds from patent publication US20130028920A1, “STABILIZED ANTIBODY PREPARATIONS AND USES THEREOF” (UNIVERSITE DE GENEVE, priority 2010, published 2013) can be followed below.

“Also recorded” adds a separate entry of the source.

Holding throughout (type): physicochemical
One data set has as its system bevacizumab. Description: Stability of dialyzed, pre-stressed bevacizumab alone and with AMP, percentage of monomers by AFFF-MALS. The method, then:
A 50 mM phosphate buffer pH 7.0 was used. The buffer choice was based on a pH range and buffer capacity that is physiologically tolerated and that is acceptable for the stability of antibodies. […] Samples were analyzed directly after preparation (t0) and after 7, 14 and 28 days. The aggregation state of the antibodies was measured by multi-angle light scattering (MALS) after separation by asymmetrical flow field-flow fractionation (AFFF). […] Data were collected and analysed with the Astra software (Wyatt Technology Europe GmbH, Dernbach, Germany). The aggregation state was expressed as the percentage of monomers versus time.

The subject of data set [1] is Avastin®. Description: Effect of AMP on the unmodified commercial bevacizumab formulation (Avastin®), stability by AFFF-MALS. Conditions: 40° C., 28 days, p<0.05. The method, then: All samples were stored at 40° C. during 28 days. Samples were analyzed directly after preparation (t0) and after 7, 14 and 28 days. The aggregation state of the antibodies was measured by multi-angle light scattering (MALS) after separation by asymmetrical flow field-flow fractionation (AFFF). […] Data were collected and analysed with the Astra software (Wyatt Technology Europe GmbH, Dernbach, Germany). The aggregation state was expressed as the percentage of monomers versus time.
All samples are stored at a temperature of 40° C. for 28 days and the stability is measured as described in Example 3 and compared to a sample of Avastin® alone stored under the same conditions.

In data set [2] the test system is Avastin®. The data set can be described thus: Stability of pre-stressed Avastin® with ATP, GMP or sucrose phosphate, by AFFF-MALS. Conditions: for stabilization of Avastin® across molar ratios: Avastin®:compound 1:1, 1:10 and 1:100, pre-stressed, PBS pH 7.0, 40° C., up to 28 days; for Short-term effects on the antibody, compared among ATP, GMP and sucrose phosphate: short term after addition. The method, then:
All samples were stored at 40° C. during 28 days. […] The aggregation state of the antibodies was measured by multi-angle light scattering (MALS) after separation by asymmetrical flow field-flow fractionation (AFFF). […] Data were collected and analysed with the Astra software (Wyatt Technology Europe GmbH, Dernbach, Germany). The aggregation state was expressed as the percentage of monomers versus time.
After pre-stressing, Avastin® samples were combined with either ATP, GMP or sucrose phosphate at three Avastin®: compound of formula (I) molar ratios (1:1, 1:10 and 1:100). All samples are stored at a temperature of 40° C. for 28 days and stability is measured as described in Example 3 and compared to a sample of Avastin® alone stored under the same conditions. For GMP, a dilution of GMP was made in PBS pH 7.0 and pH was adjusted to 7.0 before the combination with Avastin® to prevent the risk of higher order aggregates caused by the addition of NaOH directly to the antibody formulation.

Setting [3] is: molar ratio 1:1, t1 (1 day at 40° C.).
Where [4] appears, read: molar ratio 1:10, t1 (1 day at 40° C.).
The mark [5] stands for this setting: molar ratio 1:100, t1 (1 day at 40° C.).

Turning to `Nc1ncnc2c1ncn2[C@@H]1O[C@H](COP(=O)(O)O)[C@@H](O)[C@H]1O` [AMP, adenosine 5′-monophosphate], the percentage of monomers entry is on record as “higher than 94%” with bevacizumab (formulations of bevacizumab with AMP (1:153 by context), 14 days at 40° C., pH 7.0, n=3); “higher than 80%” in the data set with bevacizumab (molar ratio bevacizumab:AMP 1:1.53, 14 days at 40° C., pH 7.0); “higher than 76%” in the data set on bevacizumab (molar ratio bevacizumab:AMP 1:1.53, 28 days at 40° C., pH 7.0, n=3); “higher than 80%” in the data set with bevacizumab (molar ratio bevacizumab:AMP 1:15.3, 14 days at 40° C., pH 7.0); “higher than 76%” in the data set on bevacizumab (molar ratio bevacizumab:AMP 1:15.3, 28 days at 40° C., pH 7.0, n=3); “around 90%” in the data set on bevacizumab (molar ratio bevacizumab:AMP 1:153, 28 days at 40° C., pH 7, n=3). In addition, the “stabilization of the antibody (increase in monomers) versus Avastin® alone” value is “significant stabilization is observed at t1, t14 and t28” in the data set on Avastin® [1] (Avastin®:AMP 1:10); “such a stabilization is observed only at longer incubation times (t14 and t28)” in the data set with Avastin® [1] (Avastin®:AMP 1:100).
For the compound `Nc1ncnc2c1ncn2[C@@H]1O[C@H](COP(=O)(O)OP(=O)(O)OP(=O)(O)O)[C@@H](O)[C@H]1O` [ATP, adenosine 5′-triphosphate], in the data set with Avastin® [2], the “stabilization of Avastin® across molar ratios” value is on record as “concentration dependent stabilization”. In the data set on Avastin® [2] (compared with AMP), the “aggregation breaker strength in experiments” value is “less strong breaker than AMP”. In addition, the “stabilizing effect versus Avastin® alone” value in the data set with Avastin® [2] (setting [3]) was “stabilizing effect is observed”; with Avastin® [2] (setting [4]) it was “stabilizing effect is observed”; in the data set on Avastin® [2] (setting [5]), “stabilizing effect is observed”; in the data set with Avastin® [2] (molar ratio 1:100, t28 (28 days at 40° C.)) it was “significant stabilizing effect”. For the same compound, the “Short-term effects on the antibody, compared among ATP, GMP and sucrose phosphate” value in the data set with Avastin® [2] is on record as “most pronounced”.
Turning to `Nc1nc2c(ncn2[C@@H]2O[C@H](COP(=O)(O)O)[C@@H](O)[C@H]2O)c(=O)[nH]1` [GMP, guanosine 5′-monophosphate], the “stabilization of Avastin® across molar ratios” value in the data set on Avastin® [2] is “concentration dependent stabilization”. In addition, the “stabilizing properties, compared among ATP, GMP and sucrose phosphate” value in the data set with Avastin® [2] (after 28 days of storage at 40° C.) is given as “most distinct stabilizing properties”. In addition, the figures for the “stabilizing effect versus Avastin® alone” value with Avastin® [2] (setting [3]), in the data set with Avastin® [2] (setting [4]) and with Avastin® [2] (setting [5]) were “destabilizing”, “destabilizing” and “shows an ability to stabilize the antibody”, respectively.
For the compound sucrose phosphate, in the data set on Avastin® [2], the “stabilization of Avastin® across molar ratios” value is “concentration-dependent stabilization; also recorded: concentration-dependent stabilizing effect continues up to 28 days”. Further, the “stabilizing effect versus Avastin® alone” value in the data set on Avastin® [2] (setting [3]), with Avastin® [2] (setting [4]) and in the data set with Avastin® [2] (setting [5]) was “stabilizing effect is observed” each time. Moreover, the “Short-term effects on the antibody, compared among ATP, GMP and sucrose phosphate” value in the data set on Avastin® [2] is “most pronounced”.
